Results on two molecules are retold here after publication PMC6049614 (Chemical Communications (Cambridge, England), 2018).

Where a SMILES comes first, the peptide text is derived from it. Bridges are numbered along the chain shown (N, C = ends). [ ]: non-standard residue; d: D form. The star is where a group is joined. X1 = O=C(O)CN1CCN(CC(=O)O)CCN(Cc2ccc(CC(=O)*)cc2)CC1; Mpa = O=C(O)CCS

On the set-up of series [1]: method as in PMID 693485. Conditions: following i.v. injection; cited from earlier work.
Another series in a line: in vivo. Conditions: rat; for tissue uptake at 0.5 h / tissue uptake at 10 min: female, Wistar, in vivo, total radioactivity; for tissue uptake at 0.5 h: inhaled or intranasal. How it is done: To investigate the plausibility of i.n. administration for OT-like therapies, given the similar structure and hydrophilic profile between AlF-NODA-dLVT and OT, in vivo tissue distribution of [^18F]AlF-NODA-dLVT was determined following i.n. or i.v. administration. […]. Here, it is anticipated that both routes show independent kinetic and metabolic profiles and the extended apparent availability of OT following i.n. administration supports a longer timeframe for this study.[27],[28] Distribution was determined through gamma counting of radioactivity in isolated tissue. A large portion underwent excretion via kidneys (i.v. 4.6 ± 0.4%ID per g; i.n. 1.31 ± 0.7%ID per g) and urine (i.v. 2.5 ± 1.2%ID per g; i.n. 7.7 ± 2.2%ID per g), as expected from the hydrophilic character of the tracer, similar to previous results found with radiolabelled OT given i.v. (Fig. 4A).[29]
Fig. 4 Biodistribution of [^18F]AlF-NODA-dLVT in rat. […] Both are shown relative to blood levels following either i.n. (30 min) or i.v. (10 min) administration. Each data point corresponds to mean ± SD, n = 3.
All animal experiments were performed in accordance to the Animals (Scientific Procedures) Act 1986 and were approved by the King’s college London ethical review committee. The work was performed under PPL 70/8230 (Reza Rezavi). Adult female Wistar rats (220 ± 4.5 g) were group housed at 21 ± 1 °C in a 12 h light:dark cycle with ad libitum access to standard rat chow and water. [18F]AlF-NODA-dLVT was formulated in 0.9% saline to contain no more than 5% MeOH. Female Wistar rats received a dose of [18F]AlF-NODA-dLVT by tail vein injection (up to 650 μL in volume), or via nasal administration using a syringe with a plastic cannula attached to one nostril (25 μL per nare).
A 0.3 mL insulin syringe, containing a 29-gauge needle, was fitted with a PE10 cannula (15 mm). The cannula was fitted so that it covered approximately 3 mm of the needle tip.
Radioligand was added to the syringe and the activity measured before and after administration to calculate the injected dose (ID). Anesthesia was induced using a mixture of 5% isoflurane and oxygen (Animalcare, UK) at a flow rate of 1 L/min and maintained at 2.5% isoflurane.
Once unresponsive, the rat was held in an almost vertical position and radioactivity was administered through one nare at the back of the nasal cavity.
Rats were sacrificed by removal of the heart under isoflurane anaesthesia at 10 min following tail vein injection or 30 min following i.n. administration. Major organs were excised, washed with saline, weighed and counted in a gamma counter (LKB Wallac 1282), together with standards of the injection mixture. Organ uptake was calculated as percentage injected dose per gram [%ID/g] of tissue mass. Data are reported as mean ± SD.

A further series is described as follows: physchem. In kind it is physicochemical. Conditions: pH 7.4. The method, then: (§1) To justify use of [Al^18F]NODA-dLVT in vivo, tracer lipophilicity and specific binding were determined through a standard shake flask assay and rat brain autoradiography, respectively. A log D7.4 of –0.54 ± 0.1 was established for [Al^18F]NODA-dLVT indicating a hydrophilic profile and potential for low non-specific binding. To investigate the feasibility of [Al^18F]NODA-dLVT for nervous system imaging, tracer was incubated at a concentration of 3 nM, either alone or in the presence of excess OT (10 μM) with brain tissue cut in the sagittal plane to determine total vs. non-specific binding (Fig. 3). This enabled calculation of % specific binding of [Al^18F]NODA-dLVT to regions of brain tissue (ESI, ^† Section 4.2). [^18F]AlF-NODA-dLVT specifically bound regions known to express appreciable levels of OTR (Fig. 3),[23]–[26] including hippocampus (CA1: 53 ± 4%; subiculum, S: 60 ± 1%), central amygdala nucleus (ac: 56 ± 1%), olfactory systems (olfactory tubercle, Tu: 53 ± 5%; anterior olfactory nucleus, AO: 38 ± 2%), acumens nuclei (Acb: 43 ± 4%), and cortical regions (visual cortex, V1: 61 ± 4%; motor cortex, MC: 42 ± 4%).

The next series concerns the target T1, OTR in rat brain slices (Rattus norvegicus, UniProt P70536).
T1 construct: from tissue; host or cells: sagittal brain sections of male Wistar rats
T1 sequence (P70536 1-388): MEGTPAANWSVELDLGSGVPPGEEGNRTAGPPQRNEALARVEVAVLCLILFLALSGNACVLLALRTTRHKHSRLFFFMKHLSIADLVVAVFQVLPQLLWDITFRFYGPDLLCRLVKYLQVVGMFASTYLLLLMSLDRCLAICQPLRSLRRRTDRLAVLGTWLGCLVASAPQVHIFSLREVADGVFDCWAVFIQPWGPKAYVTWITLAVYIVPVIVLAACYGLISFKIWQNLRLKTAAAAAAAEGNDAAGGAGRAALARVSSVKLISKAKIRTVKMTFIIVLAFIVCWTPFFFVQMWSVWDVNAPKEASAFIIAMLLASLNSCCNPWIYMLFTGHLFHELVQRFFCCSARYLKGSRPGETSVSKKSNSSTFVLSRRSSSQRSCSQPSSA
Put plainly: Rat brain autoradiography, specific binding. Conditions: 3 nM tracer, nonspecific with 10 μM OT, rat brain sagittal slices. The method, then: as §1
Fig. 3 Specific binding profile of [^18F]AlF-NODA-dLVT. Radiograms of total (top; 3 nM [^18F]AlF-NODA-dLVT) and nonspecific binding (bottom; 3 nM [^18F]AlF-NODA-dLVT and 10 μM OT) of [^18F]AlF-NODA-dLVT to rat brain slices in the sagittal pane. Areas with high specific binding are indicated on the figure with arrow heads. Key: AO = anterior olfactory nucleus; CA1 = field CA1 of the hippocampus; Acb = accumbens nuclei; Tu = olfactory tubercle; VMH = ventromedial hypothalamic nuclei; MC = motor cortex; V1 = primary visual cortex; S = subiculum; ac = central amygdala nucleus; lo = lateral olfactory tract. […]
was 84 ± 2%. After 30 min 18F yields remained at 84 ± 3%.
4.1 Tissue Preparation for rat brain autoradiography
Male Wistar rats (250 g; n=3) were stunned then decapitated. Brains were rapidly removed, incubated in 20% sucrose solution for 2 h, and immediately frozen (-80 °C). Tissues were stored at -80 °C until required. Rat brains were sectioned in the sagittal plane (20 µm thickness; according to the atlas of Paxinos and Watson, 1998). Tissues were cut using a cryostat microtome (CM3050S, Leica, UK), and thaw-mounted onto glass microscope slides. Slides were stored at -80 °C until use.
4.2 Autoradiography Procedure
Tissue was thawed to room temperature, dried then washed with ice cold buffer (50 mM Tris, pH 7.4). Sections were air dried and incubated for 1 h at room temperature with [18F]AlF-NODA-dLVT (3 nM) in buffer (50 mM Tris pH 7.4, 10 mM MgCl2). For nonspecific binding, OT (10 µM) was co-incubated with [18F]AlF-NODA-dLVT (3 nM) over the duration of the experiment. After incubation, slides were washed with ice-cold buffer (2 min × 2), followed by a final wash in ice-cold distilled water (2 min). Slides were dried in a cool airstream then exposed to 18F sensitive phosphor screens (Amersham, UK) with [18F]AlF-NODA-dLVT standards in X-ray cassettes overnight. Phosphor screens were imaged using a Typhoon 8600 scanner (Molecular Dynamics) and images were analysed with OptiQuant 5.0 (Perkin Elmer) and FIJI. Values were converted to relative binding percentages using calibrated [18F]AlF-NODA-dLVT standards. Binding potential (BP) is defined as the binding of tracer in brain region/total activity incubated as determined by the standard. Specific binding in each region is calculated by comparing the total and non-specific BP by the equation: ((total BP – non-specific BP)/total BP) × 100.

Regarding `CC[C@H](C)[C@@H]1NC(=O)[C@H](Cc2ccc(O)cc2)NC(=O)[C@@H](N)CSSC[C@@H](C(=O)N2CCC[C@H]2C(=O)N[C@@H](CC(C)C)C(=O)NCC(N)=O)NC(=O)[C@H](CC(N)=O)NC(=O)[C@H](CCC(N)=O)NC1=O` [OTc, oxytocin], the plasma half-life result in series [1] is recorded as “approximately 3 min”.
Turning to `CC[C@H](C)[C@@H]1NC(=O)[C@H](Cc2ccc(O)cc2)NC(=O)CCSSC[C@@H](C(=O)N2CCC[C@H]2C(=O)N[C@@H](CCCCNC(=O)Cc2ccc(CN3CCN(CC(=O)O)CCN(CC(=O)O)CC3)cc2)C(=O)NCC(N)=O)NC(=O)[C@H](CC(N)=O)NC(=O)[C@H](CCC(N)=O)NC1=O` [[^18F]AlF-NODA-dLVT] ([Mpa]YIQNCPK(X1)G-NH2; disulfide 1-6), the tissue uptake – broadly, the percentage of the injected dose found per gram of tissue – at 0.5 h in “in vivo” (uptake in brain parenchyma) is 0.11 ± 0.03 %ID/g. In addition, the tissue uptake at 0.5 h in “in vivo” (uptake in cerebellum) came to 0.31 ± 0.26 %ID/g. The tissue uptake at 0.5 h in “in vivo” (uptake in kidneys) was found to be 1.31 ± 0.7 %ID/g. In “in vivo” (uptake in olfactory bulb), the tissue uptake at 0.5 h is 2.3 ± 1.8 %ID/g. In addition, in the series “in vivo” (iv, uptake in brain parenchyma), the tissue uptake at 10 min turned out to be 0.05 ± 0.03 %ID/g. The tissue uptake at 10 min in “in vivo” (iv, uptake in cerebellum) came to 0.05 ± 0.01 %ID/g. For the same molecule, the tissue uptake at 10 min in the series “in vivo” (iv, uptake in kidneys) worked out at 4.6 ± 0.4 %ID/g. The tissue uptake at 10 min in “in vivo” (iv, uptake in olfactory bulb) worked out at 0.05 ± 0.02 %ID/g. The brain permeable material result in the series “in vivo” (iv) is “approximately 4.7 × 10^–2 %ID per g”. Further, the logD (in general, the decadic logarithm of the distribution of all forms, ionised or not, between an organic phase and buffer at a given pH) in “physchem” is -0.54. For the same molecule, at OTR in rat brain slices, the “% specific binding, acumens nuclei (Acb)” value amounted to 43 ± 4%; the “% specific binding, anterior olfactory nucleus (AO)” value is 38 ± 2%; the “% specific binding, central amygdala nucleus (ac)” value is reported as 56 ± 1%; the “% specific binding, hippocampus CA1” value was 53 ± 4%. At OTR in rat brain slices, the “% specific binding, motor cortex (MC)” value was 42 ± 4%; the “% specific binding, olfactory tubercle (Tu)” value was found to be 53 ± 5%; the “% specific binding, subiculum (S)” value was 60 ± 1%; the “% specific binding, visual cortex (V1)” value came out at 61 ± 4%.
